Columns and labels:
[1] = system: flushing side effect of niacin; experiment: Example 1: flush rating on the Global Flush Severity Scale (GFSS) after niacin, with or without aspirin; assay type: in vivo, human; details: for reduction of flush severity (GFSS) from Period I: vs niacin alone
Description: Healthy human patients were recruited for this study. […] Each patient was asked to rate his or her flush on the Global Flush Severity Scale (GFSS) (see FIG. 1 and Paolini et al. Int. J. Clin. Pract. 62(6):896-904 (2008)), when the flush completely resolved. The Global Flushing Severity Score measures, overall, in the previous 24 hours, how each patient rates the flushing symptoms, including redness, warmth, tingling, and itchiness of the skin. […] After the flush completely resolved, then each patient recorded his or her GFSS flush rating. Not until at least two days later did Period III start. At Period III, each patient was asked to not swallow the orally administered aspirin (81 mg) but to allow the aspirin to be absorbed through the oral mucosa. The aspirin was in powdered form and the remaining aspirin in the mouth was washed out with water. […] Still, the flush was rated (GFSS) after it was resolved. […] The flush was then rated (GFSS) after it completely resolved.

[2] = GI-absorbed aspirin; cited from earlier work

CC(=O)Oc1ccccc1C(=O)O [aspirin]
reduction of flush severity (GFSS) from Period I ([1]; Period II: 81 mg aspirin swallowed + 500 mg niacin): 18% | Global Flush Severity Scale (GFSS) average score ([1]; Period II: 81 mg aspirin swallowed, followed by 500 mg niacin): 6.88 | Global Flush Severity Scale (GFSS) average score ([1]; Period III: 81 mg aspirin mucosally absorbed (not swallowed), then 500 mg niacin): 5.06 | reduction of flush severity (GFSS) from Period I ([1]; Period III: 81 mg aspirin mucosally absorbed + 500 mg niacin): 40% | Global Flush Severity Scale (GFSS) average score ([1]; Period IV: 81 mg aspirin half mucosally absorbed and half swallowed, then 500 mg niacin): 3.94 | reduction of flush severity (GFSS) from Period I ([1]; Period IV: 81 mg aspirin half mucosally absorbed, half swallowed + 500 mg niacin): 53% | time to peak aspirin serum level following administration [2]: 15 to 20 min

Source: patent publication US9226891B2, “Anti-flush compositions” (Vitalis LLC, priority 2011, dated 2016)
